Source: patent publication US4849405A, “Oral insulin and a method of making the same” (priority 1986, dated 1989)

Tested on: white laboratory rats
Experiment: Blood glucose level in rats before and three hours after administration of oral insulin preparation
Type: in vivo
Settings: rat; preparation containing 5 units of bovine insulin; three hours after administration
Procedure: Two white laboratory rats, weighing 177 and 197 grams, respectively, were used in this experiment. One rat was administered a preparation of oral insulin according to the present invention containing 5 units of insulin; a formulation of the oral insulin according to the present invention containing 10 units of bovine insulin was administered to the second rat. Blood samples were drawn from each animal before and three hours after administration of the oral insulin preparation. The results given below are expressed as the percentage of the pre-experiment blood glucose level.
One white laboratory rat weighing 181 grams received a non-encapsulated preparation containing 5 units of free bovine insulin. This animal served as the control. After three hours, blood glucose level was 98.7% of the pre-experiment blood glucose level.

## free bovine insulin: non-encapsulated preparation containing 5 units of free bovine insulin; served as the control
  blood glucose level as percentage of the pre-experiment blood glucose level: 98.7%
